# Patent US8999937B2, “Glucocorticoid induced leucine zipper mimetics as therapeutic agents in multiple sclerosis” (Indiana University Research and Technology Corporation, priority 2011, dated 2015)
# “Also recorded” adds a separate entry of the source.
# Legend:
# [1] = test system: CD4+ splenocytes from R-EAE mice; experiment: Ex vivo proliferation of CD4+ splenocytes from treated R-EAE mice; format: in vivo, mouse; conditions: for proliferative responses (mean Δcpm) to PLP139-151: mice treated on day 0, cells 45 days post-immunization; for average proliferative response of unstimulated CD4+ splenocytes: in cpm
# Experimental: (§1) Data represent average±S.D. from two experiments (n=9/group). (C)-(H) show GILZ-peptide treatment suppresses Th1 cytokines in R-EAE. […] C, proliferative responses of CD4+ splenocytes are plotted as Δcpm±S.E. #, p<0.05 as compared with the responses of cells from vehicle-treated mice. Supernatant collected at 48 h from separate CD4+ splenocyte cultures were assessed for (D) IL-12, (E) IFN-γ, (F) IL-17, (G) IL-10, and (H) TGF-β by ELISA. * and # represent p<0.05 as compared with vehicle or control peptide-treated groups, respectively.
# (§2) Supernatants collected at 24 and 48 h were assessed for specific cytokines using the OptEIA kits (BD Biosciences). Proliferation assays included parallel cultures for 72 h with a final 18-h pulse with [^3H]thymidine measured by liquid scintillation counting (Microbeta, Turku, Finland).
# [2] = test system: CD4+ splenocytes/LNC from R-EAE mice; experiment: Ex vivo cytokine secretion (ELISA) by CD4+ cells from treated R-EAE mice; format: in vivo, mouse
# Experimental: as §1
# Supernatants collected 48 hrs later were assessed for cytokines using Opt EIA kits according to the manufacturer's recommendations (BD PharMingen). Differences between the groups in the mean clinical score and cytokine secretion were determined by a one-way ANOVA with Tukey's posthoc. Results were considered significant at p<0.05.
# as §2
# [3] = target: T1, p65ΔC14 (Homo sapiens, UniProt Q04206); experiment: GILZ binding ELISA with partial length p65; conditions: detected with anti-p65 mAb
# T1 construct: purchased Active Motif, Carlsbad, Calif
# Experimental: (§3) Binding of the plate-bound r-p65 with cytoplasmic GILZ and the plate-bound GILZ with nuclear p65 was detected with anti-GILZ mAb or anti-p65 mAb, respectively, followed by trinitrobenzene substrate. […] Absorbance at 650 nm was measured between 0 and 300 s with a mixing time of 0.30 s and a 5-s interval between readings.
# [4] = test system: CD4+ LNC from PLP primed SJL/J mice; experiment: In vitro cytokine secretion (ELISA) by PLP139-151 restimulated CD4+ cells from primed SJL/J mice; format: cell-based, mouse; conditions: for IFN-γ secretion / IL-10 secretion / IL-12 secretion / IL-17 secretion: CD4+ LNC, PLP restimulated, 48 h; for IFN-γ secretion / IL-10 secretion / IL-12 secretion: vs untreated/control peptide; for IL-17 secretion: vs untreated/control-P; for cytokine secretion (INF-γ and IL-12p40) by in-vivo primed T cells: CD4+ splenocytes, PLP 40 μg/ml, 24 hrs, FIG. 5
# Experimental: CD4+ splenocytes isolated 10 days post-immunization from SJL mice induced EAE were co-cultured with irradiated syngenic APC and restimulated with PLP (40 μg/ml) in the presence of complex of chariot peptide with rGILZ protein/dexamethasone/GILZ-P at indicated concentrations. Supernatants collected after 24 hrs were assessed for INF-γ and IL-12p40 by ELISA. *=p<0.05 when compared to cells +PLP.
# Supernatants from separate CD4+LNC cultured similarly collected at 24 hrs and 48 hrs were stored at −20° C. The levels of cytokines, IL-10, IL-12, and interferon gamma (IFN-γ) were determined by ELISA, using OptEIA kits, according to the manufacturer's recommendations (BD PharMingen). Group comparisons were made by one way analysis of variance (ANOVA) followed by Tukey's post-hoc.
# as §2
# [5] = Circular dichroism; format: physicochemical
# Experimental: CD measurements can be recorded on a JASCO model, J-710 spectropolarimeter, (Jasco Inc, Easton, Md.) as described previously. The samples can be prepared by dissolving lyophilized GILZ peptide or control peptides at 100 μM concentration in citrate buffer (1 mM sodium citrate, 1 mM sodium borate, 1 mM sodium phosphate, 15 mM NaCl) with pH adjusted at 7.0. CD spectra can be collected using a 1 cm path-length quartz cuvette at 50° C. or 90° C. in the 190- to 270-nm wavelength range with a 0.5 nm resolution and a scan rate of 200 nm/min. Reported spectra can represent the unsmoothed averages of 30 scans. Each spectrum can be measured three times with individually prepared solutions. Raw CD signals (in millidegrees) can be converted to mean residue molar ellipticity (θ) in deg cm^2/dmol using the formula [θ] MRW 5 [θ]obs/101cn, where θ obs is the observed ellipticity, 1 is the pathlength in centimeters, c is the molar concentration of peptide, and n is the number of residues in the peptide. To determine 0% PPII helical content CD spectra can be recorded with GILZ-peptide dissolved in 5M CaCl2.
# [6] = target: T2, recombinant human p65 protein (r-p65) (Homo sapiens, UniProt Q04206); experiment: GILZ:p65 direct binding and kinetics by modified ELISA
# T2 construct: control-P at varying concentrations was probed with full-length r-p65-DDK; purchased OriGene Technologies Inc., Rockville, Md
# Experimental: To detect direct interaction, ELISA plates were coated with increasing concentrations of the GILZ protein and probed with increasing concentrations of the p65 protein followed by detection with anti-human GILZ mAb. To detect binding of cellular GILZ and p65, ELISA plates were coated with the p65 protein (20 ng), and probed with the cytoplasmic fraction from T cells. Binding of the plate bound p65 with the cytoplasmic GILZ protein was detected with anti-human GILZ mAb. Alternatively, wells coated with the GILZ-GST protein (20 ng) were probed with the nuclear fractions from T cells and the GILZ:nuclear p65 binding was detected with anti-human p65 mAb. The bound complex was detected with TNB at absorbance of 450 nm.
# as §3
# [7] = test system: PPD stimulated human CD4+ T cells; experiment: Cytokine secretion by PPD-stimulated human CD4+ T cells (ELISA); format: cell-based; conditions: 24 h, complex with chariot peptide
# Experimental: Purified CD4+ T cells isolated from PBMC by magnetic cell separation (Miltenyi Biotech, Germany), were seeded with irradiated autologous PBMC (T cells depleted) as APC at 1:1.5 ratio in serum-free RPMI (with 5% penicillin/streptomycin), and stimulated with PPD (20 μm/ml) alone or in the presence of dexamethasone (100 μm/ml) or 20:1 M complex of chariot peptide with GILZ protein (0.7 μm/ml)/anti-human GILZ mAb (1 μm/ml)/anti-human p65 mAb (1 μm/ml)/control antibody (1 μm/ml). Supernatants collected at 24 hrs were assessed for cytokines including human IFN-γ, TNF-α, IL-12 p40 and IL-10 using BD OptEIA™ kits. Differences in the secretion of cytokines between the groups were determined by one way ANOVA followed by Tukey's post-hoc analysis (see FIG. 4).
# [8] = Example 1, LNC 45 days post-immunization, PLP139-151 and/or MBP87-99, vs vehicle/control peptide
# [9] = Example 1, LNC 45 days post-immunization, PLP139-151 or MBP87-99, vs vehicle/control peptide
# [10] = MBP87-99 stimulation, mice treated on day 0
# [11] = PLP139-151 re-stimulation, mice treated on day 0
# [12] = mice treated 12 days post-immunization
# T2 sequence (Q04206 whole entry): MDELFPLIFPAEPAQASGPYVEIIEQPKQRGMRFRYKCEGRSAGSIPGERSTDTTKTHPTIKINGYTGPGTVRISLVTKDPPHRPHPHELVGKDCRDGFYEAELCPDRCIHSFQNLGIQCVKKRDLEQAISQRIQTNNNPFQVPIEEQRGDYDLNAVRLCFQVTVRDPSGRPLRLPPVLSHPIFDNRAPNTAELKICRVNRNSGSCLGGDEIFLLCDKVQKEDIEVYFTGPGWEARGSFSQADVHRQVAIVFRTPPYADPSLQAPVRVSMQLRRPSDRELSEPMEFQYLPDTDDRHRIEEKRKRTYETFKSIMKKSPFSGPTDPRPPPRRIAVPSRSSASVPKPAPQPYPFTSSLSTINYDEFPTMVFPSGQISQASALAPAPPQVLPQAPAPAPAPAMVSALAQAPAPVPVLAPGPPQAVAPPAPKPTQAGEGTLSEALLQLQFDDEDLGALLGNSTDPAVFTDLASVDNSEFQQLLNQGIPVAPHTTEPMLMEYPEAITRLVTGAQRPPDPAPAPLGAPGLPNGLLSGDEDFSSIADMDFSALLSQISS
# T1 sequence (Q04206 1-537 limits assumed, stated change not applied): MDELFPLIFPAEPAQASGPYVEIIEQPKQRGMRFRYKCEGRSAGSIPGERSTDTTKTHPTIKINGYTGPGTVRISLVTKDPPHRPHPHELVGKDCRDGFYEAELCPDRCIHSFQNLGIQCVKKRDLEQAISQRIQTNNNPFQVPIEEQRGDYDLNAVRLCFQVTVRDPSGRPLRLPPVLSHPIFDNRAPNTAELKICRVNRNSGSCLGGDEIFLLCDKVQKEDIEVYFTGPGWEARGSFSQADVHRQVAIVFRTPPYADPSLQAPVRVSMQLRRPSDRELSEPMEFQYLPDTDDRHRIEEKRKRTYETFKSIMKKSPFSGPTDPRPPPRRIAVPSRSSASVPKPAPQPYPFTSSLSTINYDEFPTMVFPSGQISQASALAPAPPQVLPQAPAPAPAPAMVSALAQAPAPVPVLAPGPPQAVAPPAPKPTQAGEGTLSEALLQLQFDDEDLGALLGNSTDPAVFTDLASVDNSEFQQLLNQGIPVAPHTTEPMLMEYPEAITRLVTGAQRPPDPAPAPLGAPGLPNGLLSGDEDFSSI
Substance,proliferative responses (mean Δcpm) to PLP139-151 [1],average proliferative response of unstimulated CD4+ splenocytes ([1]; mice treated on day 0),"IL-10 secretion [2, 8]","IFN-γ secretion [2, 9]","IL-12 secretion [2, 9]","TNF-α secretion [2, 9]","IL-10 secretion [2, 10] [pg/mL]","TGF-β secretion [2, 10] [pg/mL]","IFN-γ secretion [2, 11] [pg/mL]","IL-12 secretion [2, 11] [pg/mL]","IL-17 secretion [2, 11] [pg/mL]",IFN-γ secretion [4],IL-10 secretion [4],IL-12 secretion [4],IL-17 secretion [4],cytokine secretion (INF-γ and IL-12p40) by in-vivo primed T cells [4],also measured
Ac-CLSPEEPAPESPQVPEAPGGSAV-NH2 [GILZ-P],"5,733±208 cpm","2,376±602",higher,significantly reduced,significantly reduced,significantly reduced,1850.8 ± 90,33.31 ± 4,96.5 ± 7.1,12.7 ± 0.47,10.85 ± 0.3,significantly lower,elevated,significantly lower,significantly lower,suppresses,"average proliferative response of unstimulated CD4+ splenocytes ([1]; mice treated on day 12): 1,823±532; IFN-γ secretion [2, 10]: 97.4 ± 6.9 pg/mL; IL-12 secretion [2, 10]: 28.4 ± 1.6 pg/mL; IL-17 secretion [2, 10]: 10.43 ± 0.4 pg/mL; IL-10 secretion ([2]; PLP139-151 stimulation, mice treated on day 0): 2316 ± 52.9 pg/mL; IL-12 secretion, in words [2, 12]: significantly lower; reduction in IFN-γ, in words [2, 12]: not significant; absorbance of plate-bound agent probed with p65ΔC14 [3]: Absorbance over background was not observed; IFN-γ secretion ([4]; listed as GILZ-peptide): significantly decreased; IL-12 secretion ([4]; listed as GILZ-peptide): significantly decreased; mean residue molar ellipticity θ, maximum at 238 nm ([5]; 50° C.): 1.12×10^3 deg cm^2 dmol^−1; mean residue molar ellipticity θ, minimum at 200 nm ([5]; 50° C.): −20.03×10^3 deg·cm^2/dmol; mean residue molar ellipticity θ @ 204 nM ([5]; 90° C.): −11.37×10^3 deg cm^2/dmol; mean residue ellipticity minimum at 205 nM ([5]; in 5M CaCl2): −8.84×10^3 deg cm^2/dmol; time at which maximum absorbance was reached in binding with r-p65 [6]: 38 s; adjusted velocity of the interaction with r-p65 ([6]; at 1:4 molar concentrations): 25 s⁻¹; p65 binding (absorbance) of plate-bound agent probed with full-length r-p65 ([6]; varying coating concentrations, 40 μM r-p65): decreased with decreasing concentrations"
r-GILZ: recombinant glucocorticoid induced leucine zipper protein (Abnova; OriGene with C-terminal DDK),"16,880±264 cpm","2,037±603",higher,significantly reduced,significantly reduced,significantly reduced,1667 ± 63.7,31.7 ± 0.8,100.5 ± 6.8,22.5 ± 01.05,10.66 ± 0.2,significantly decreased; also recorded: significantly lower,elevated,significantly decreased; also recorded: significantly lower,significantly lower,suppresses,IL-10 secretion [7]: significantly elevated; secretion of IFN-γ [7]: significantly reduced; secretion of IL-12 [7]: significantly reduced
